Results: US4505897A, “Cyclic pentapeptides displaying somatostatin antagonism and method of treatment of mammals therewith” (The Administrators of the Tulane Educational Fund, priority 1983, dated 1985)
Non-standard residues stand in square brackets, D forms with d. Residues, ends and D or L forms follow the SMILES beside them. *: point of attachment. Bn = c1ccc(C*)cc1

Legend:
plasma GH levels = experiment: Peptide effects on NEMBUTAL-stimulated GH levels in anesthetized rats (sc bolus, jugular blood, RIA); type: in vivo, rat
Procedure: (§1) In this evaluation, the procedures described by W. A. Murphy et al., Endocrinology, 109:491-495 (1980), were employed.
In growth hormone (GH) experiments, male rats (Charles Rivers) were anesthetized with NEMBUTAL® (5 mg per 100 g/BW) which also served to maintain stimulated plasma GH levels. Exactly 30 minutes after the rats were anesthetized, 0.5 ml of saline or the test peptide in saline was administered as a sc bolus. A 1 ml blood sample was drawn from the jugular vein 15 minutes after the injection. For examining blocking effects of the analog on somatostatin, the cyclic peptide was given five minutes prior to somatostatin. GH levels were determined using NIADDKD rat GH RIA components.

glucagon release = experiment: Basal hepatic portal glucagon levels in fasted rats; type: in vivo, rat; conditions: after treatment, result in words
Source text: as §1

insulin release = experiment: Basal hepatic portal insulin levels in fasted rats; type: in vivo, rat; conditions: after treatment, result in words
Source text: as §1

somatostatin = experiment: Somatostatin antagonist activity (blocking of exogenous somatostatin effects); type: in vivo, rats; conditions: result in words

Compound: C[C@H](N)C(=O)NCC(=O)N[C@H]1CSSC[C@@H](C(=O)O)NC(=O)[C@H](CO)NC(=O)[C@H]([C@@H](C)O)NC(=O)[C@H](Cc2ccccc2)NC(=O)[C@H]([C@@H](C)O)NC(=O)[C@H](CCCCN)NC(=O)[C@H](Cc2c[nH]c3ccccc23)NC(=O)[C@H](Cc2ccccc2)NC(=O)[C@H](Cc2ccccc2)NC(=O)[C@H](CC(N)=O)NC(=O)[C@H](CCCCN)NC1=O [Somatostatin, somatostatin]
- GH (plasma GH levels; first experiment, dose 0.4 μg/100 g body weight sc, blood 15 min after injection, saline 389 ± 60): 152 ± 51 ng/mL
- GH (plasma GH levels; third experiment, dose 0.5 μg/100 g body weight sc, saline 497 ± 80): 173 ± 46 ng/mL

Compound: C[C@@H](OCc1ccccc1)[C@@H]1NC(=O)[C@H](CCCCN)NC(=O)[C@@H](Cc2c[nH]c3ccccc23)NC(=O)[C@H](Cc2ccccc2)NC(=O)[C@@H]2CCCN2C1=O [Cyclo[Pro--Phe--D-Trp--Lys--Thr(Bzl)], cyclo(L-prolyl-L-phenylalanyl-D-tryptophyl-L-lysyl-O-benzyl-L-threonyl)] (cyclo(F[dW]KT(Bn)P))
- plasma growth hormone levels (plasma GH levels; NEMBUTAL-anesthetized and stimulated rats, after injection, result in words): increased
- GH (plasma GH levels; third experiment, dose 0.2 μg/100 g body weight sc, saline 497 ± 80): 1724 ± 393 ng/mL
- GH (plasma GH levels; third experiment, dose 0.2 μg/100 g body weight sc, saline 497 ± 80, listed as cyclo[Pro-Phe-D-Trp-Lys-Thr(Bzl)]): 1724 ± 383 ng/mL
- GH (plasma GH levels; third experiment, dose 0.6 μg/100 g body weight sc, saline 497 ± 80): 812 ± 163 ng/mL
- basal hepatic portal glucagon levels (glucagon release): significantly increased
- basal hepatic portal insulin levels (insulin release): significantly increased
- somatostatin antagonist activity (somatostatin): very effective somatostatin antagonist

Compound: C[C@@H](O)[C@@H]1NC(=O)[C@H](CCCCN)NC(=O)[C@@H](Cc2c[nH]c3ccccc23)NC(=O)[C@H](Cc2ccccc2)NC(=O)[C@@H]2CCCN2C1=O [Cyclo(Pro--Phe--D-Trp--Lys--Thr), cyclo(L-prolyl-L-phenylalanyl-D-tryptophyl-L-lysyl-L-threonyl)] (cyclo(F[dW]KTP))
- GH (ng/ml) (plasma GH levels; first experiment, dose 2 μg/100 g body weight sc, saline 389 ± 60): 730 + 110 ng/ml
- GH (plasma GH levels; first experiment, dose 10 μg/100 g body weight sc, saline 389 ± 60): 459 ± 100 ng/mL
- GH (plasma GH levels; second experiment, dose 0.3 μg/100 g body weight sc, saline 648 ± 177): 1265 ± 318 ng/mL
- GH (plasma GH levels; second experiment, dose 0.3 μg/100 g body weight sc, saline 648 ± 177, listed as cyclo(Pro-Phe-D-Trp-Lys-Thr)): 1265 ± 318 ng/mL
- GH (plasma GH levels; second experiment, dose 0.6 μg/100 g body weight sc, saline 648 ± 177): 1072 ± 187 ng/mL
- GH (plasma GH levels; second experiment, dose 1.2 μg/100 g body weight sc, saline 648 ± 177): 728 ± 143 ng/mL
- somatostatin antagonist activity (somatostatin): has somatostatin antagonist activity
